In publication PMC4503722, “Novel Phenotypic Outcomes Identified for a Public Collection of Approved Drugs from a Publicly Accessible Panel of Assays” (PLoS ONE, 2015):

Assays:
RKO = assay: cells; type: cell-based; conditions: for Basal_Viability ATP RKO IC50/EC50: assay number 29
[1] = test system: HCT116 cells treated with a GSK3β inhibitor; assay: cells; type: cell-based; conditions: for GSK3b inh pretreated_Viability ATP HCT116 IC50/EC50: assay number 26, GSK3b inhibitor pretreated
DLD-1 = assay: cells; type: cell-based; conditions: for Basal_Viability ATP DLD-1 IC50/EC50: assay number 23
HCT116 = assay: cells; type: cell-based; conditions: basal; for Basal_Viability ATP HCT116 IC50/EC50: assay number 25
HT-29 = assay: cells; type: cell-based; conditions: for Basal_Viability ATP HT-29 IC50/EC50: assay number 28
SW480 = assay: cells; type: cell-based; conditions: for Basal_Viability ATP SW480 IC50/EC50: assay number 24
[2] = test system: ECFC/ADSC co-culture cell nuclei number
Colo320 = assay: cells; type: cell-based; conditions: for Basal_Viability ATP Colo 320 IC50/EC50: assay number 27
[3] = test system: endothelial tube formation in co-cultures of ECFCs and ADSCs treated with VEGF; assay: cells; type: cell-based, human
SNU-C1 = assay: cells; type: cell-based; conditions: for Basal_Viability ATP SNU-C1 IC50/EC50: assay number 30

Compound | VEGF_ADSC\ECFC Angio Hoechst NucArea IC50/EC50 [2] [µM] | VEGF_ADSC\ECFC Angio CD31 TubeArea IC50/EC50 [3] [µM] | Basal_Viability ATP RKO IC50/EC50 (RKO; basal) [µM] | GSK3b inh pretreated_Viability ATP HCT116 IC50/EC50 [1] [µM] | Basal_Viability ATP DLD-1 IC50/EC50 (DLD-1; basal) [µM] | Basal_Viability ATP HCT116 IC50/EC50 (HCT116) [µM] | Basal_Viability ATP HT-29 IC50/EC50 (HT-29; basal) [µM] | Basal_Viability ATP SW480 IC50/EC50 (SW480; basal) [µM] | Basal_Viability ATP Colo 320 IC50/EC50 (Colo320; basal) [µM] | Basal_Viability ATP SNU-C1 IC50/EC50 (SNU-C1; basal) [µM] | also measured
O=C(NC(=O)c1c(F)cccc1F)Nc1ccc(Cl)c(Oc2ncc(C(F)(F)F)cc2Cl)c1 [NCGC00166205-02] | > 10 | > 10 | – | – | – | – | – | – | – | – | Basal_Viability ATP RKO IC50/EC50 (RKO; concentration response): 11.8144 µM; GSK3b inh pretreated_Viability ATP HCT116 IC50/EC50 ([1]; concentration response): 10.6205 µM; Basal_Viability ATP DLD-1 IC50/EC50 (DLD-1; concentration response): > 20 µM; Basal_Viability ATP HCT116 IC50/EC50 (HCT116; concentration response): > 20 µM; Basal_Viability ATP HT-29 IC50/EC50 (HT-29; concentration response): > 20 µM; Basal_Viability ATP SW480 IC50/EC50 (SW480; concentration response): > 20 µM; Basal_Viability ATP Colo 320 IC50/EC50 (Colo320; concentration response): > 20 µM; Basal_Viability ATP SNU-C1 IC50/EC50 (SNU-C1; concentration response): > 20 µM
C[C@H](O)CN(C)C [NCGC00166221-02] | – | – | – | – | – | – | – | – | – | – | IC50/EC50, Basal_Viability ATP RKO (assay number 29) (RKO; basal): > 20 µM; IC50/EC50, GSK3b inh pretreated_Viability ATP HCT116 (assay number 26) ([1]; GSK3b inh pretreated): > 20 µM; IC50/EC50, Basal_Viability ATP DLD-1 (assay number 23) (DLD-1; basal): > 20 µM; IC50/EC50, Basal_Viability ATP HCT116 (assay number 25) (HCT116): > 20 µM; IC50/EC50, Basal_Viability ATP HT-29 (assay number 28) (HT-29; basal): > 20 µM; IC50/EC50, Basal_Viability ATP SW480 (assay number 24) (SW480; basal): > 20 µM; IC50/EC50, VEGF_ADSC\ECFC Angio Hoechst NucArea (assay number 3) [2]: > 10 µM; IC50/EC50, Basal_Viability ATP Colo 320 (assay number 27) (Colo320; basal): > 20 µM; IC50/EC50, VEGF_ADSC\ECFC Angio CD31 TubeArea (assay number 2) [3]: > 10 µM; IC50/EC50, Basal_Viability ATP SNU-C1 (assay number 30) (SNU-C1; basal): > 20 µM
C=CCCCCCCCCC(=O)OC [NCGC00166231-02] | > 10 | > 10 | – | – | – | – | – | – | – | – | Basal_Viability ATP RKO IC50/EC50 (RKO; concentration response): > 20 µM; GSK3b inh pretreated_Viability ATP HCT116 IC50/EC50 ([1]; concentration response): > 20 µM; Basal_Viability ATP DLD-1 IC50/EC50 (DLD-1; concentration response): > 20 µM; Basal_Viability ATP HCT116 IC50/EC50 (HCT116; concentration response): > 20 µM; Basal_Viability ATP HT-29 IC50/EC50 (HT-29; concentration response): > 20 µM; Basal_Viability ATP SW480 IC50/EC50 (SW480; concentration response): > 20 µM; Basal_Viability ATP Colo 320 IC50/EC50 (Colo320; concentration response): > 20 µM; Basal_Viability ATP SNU-C1 IC50/EC50 (SNU-C1; concentration response): > 20 µM
Clc1ccc(C(Cn2ccnc2)OCc2ccsc2Cl)c(Cl)c1 (stereo not shown) [NCGC00167430-04] | 9.466 | 4.9961 | 5.2538 | 2.843 | > 20 | 4.0687 | > 20 | > 20 | 5.2288 | 2.1843 | –
Cc1cccc(C)c1NC(=O)CC12CCCN1CCC2 [NCGC00167454-02] | > 10 | > 10 | > 20 | > 20 | > 20 | > 20 | > 20 | > 20 | > 20 | > 20 | –
CC(C)Cn1cnc2c1c(=O)n(C)c(=O)n2C [NCGC00168348-03] | > 10 | > 10 | > 20 | > 20 | > 20 | > 20 | > 20 | > 20 | > 20 | > 20 | –
CC(=O)N(CC(O)CN(C(C)=O)c1c(I)c(C(=O)NCC(O)CO)c(I)c(C(=O)NCC(O)CO)c1I)c1c(I)c(C(=O)NCC(O)CO)c(I)c(C(=O)NCC(O)CO)c1I (stereo not shown) [NCGC00179408-03] | > 10 | > 10 | > 20 | > 20 | > 20 | > 20 | > 20 | > 20 | > 20 | > 20 | –
